Patent US9249147B2, “Tyrosine kinase inhibitors” (CHEMBRIDGE CORPORATION, priority 2008, dated 2016)
“And” between values parts separate entries of the source, which are not always exact repeats. Equal entries are not always repeated. Where two headings read alike, the source gives them in different places.

What was measured:
IRK = biological target: T1, IRK (Homo sapiens, UniProt P06213); test: IRK (insulin receptor kinase) assay; assay type: biochemical; conditions: Table 1; read-out: IRK IC50
T1 construct: 6×His- or GST-tagged kinase domain fragments of the corresponding RTKs expressed in baculovirus system; host or cells: baculovirus system
T1 sequence (P06213 1023-1298 limits assumed): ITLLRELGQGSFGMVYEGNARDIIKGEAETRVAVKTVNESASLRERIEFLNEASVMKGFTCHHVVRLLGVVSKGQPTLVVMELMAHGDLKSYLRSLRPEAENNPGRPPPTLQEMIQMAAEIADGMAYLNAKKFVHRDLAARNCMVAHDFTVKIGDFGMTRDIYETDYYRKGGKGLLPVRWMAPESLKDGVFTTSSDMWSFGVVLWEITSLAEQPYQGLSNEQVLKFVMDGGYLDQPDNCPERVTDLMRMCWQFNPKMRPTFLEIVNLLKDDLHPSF
Procedure: To determine inhibition of several tyrosine kinases, such as IGF1R, InsR, Alk, TrkA and Jak2, kinase assays are conducted using either Kinase-Glo (Promega) or AlphaScreen (PerkinElmer) kinase assay platforms. The Kinase-Glo Luminescent Kinase Assay is a homogeneous method for measuring kinase activity by determining the amount of ATP remaining after a kinase reaction. The luminescent signal is proportional to the amount of ATP and inversely proportional to the amount of kinase activity. Tyrosine kinase PT66 AlphaScreen Assay is a high-sensitivity homogeneous, anti-phosphotyrosine antibody-mediated luminescent proximity method measuring incorporation of phosphate in synthetic poly(Glu-Tyr) substrate. The kinase preparations used consist of purified recombinant, 6×His- or GST-tagged kinase domain fragments of the corresponding RTKs expressed in baculovirus system.
Compounds with a range of concentrations 40 μM, 20 μM, 10 μM, 5 μM, 2.5 μM, 1.25 μM, 0.625 μM, 0.3125 μM, 0.15625 μM and 0.078125 μM were incubated with NPM-ALK, which was produced in insect cells as a 6×HIS-tagged fusion protein and purified using nickel-charged resin chromatography, for 30 minutes at RT in the presence of 10 μM ATP and 7.0 ng biotinylated poly-GT. A 1:1 mixture of […] and donor beads was then added to the reaction and incubated for an additional 60 minutes at RT. The assay was conducted on a MultiPROBE liquid handling workstation (PerkinElmer) in a 384-well plate format with a total reaction volume of 40 μL per well. Working stocks of all compounds were dissolved in 100% DMSO and serial dilutions of the compounds were performed using kinase buffer (50 mM Tris-HCl (pH 7.5), 5 mM MgCl2, 5 mM MnCl2, 2 mM DTT (added freshly before use), 0.01% Tween-20) containing 5% DMSO. […] Data were collected as optical readings at 520-680 nm on a Fusion™ microplate analyzer (PerkinElmer), and IC50 and Ki values calculated using PRISM3.0 software (GraphPad Software, Inc., San Diego, Calif.). The same assay was also used with minor modifications to assess the IC50 and Ki values for selected compounds against five other tyrosine kinases (IRK, IGF1R, Flt3, Abl, Src), all of which were purchased from commercial vendors. PolyGT-Biotin was bought from CIS Biointernational Cat. #61GT0BLD; ATP—from Sigma Cat. # A7699; sodium orthovanadate—from Sigma Cat. #S-6508; phosphotyrosine (PT66) assay kit from PerkinElmer Cat. #6760602M; automated workstation tips (20 μL): PerkinElmer Cat. #6000657; and OptiPlate-384 (white)—from PerkinElmer Cat. #6007299.

TRKA = TRKA (Homo sapiens, UniProt P04629); test: TRKA kinase assay; assay type: biochemical; set-up: 6×His- or GST-tagged kinase domain fragments of the corresponding RTKs expressed in baculovirus system; host or cells: baculovirus system; conditions: Table 1; read-out: TRKA IC50
Chain of TRKA (P04629 510-781 limits assumed): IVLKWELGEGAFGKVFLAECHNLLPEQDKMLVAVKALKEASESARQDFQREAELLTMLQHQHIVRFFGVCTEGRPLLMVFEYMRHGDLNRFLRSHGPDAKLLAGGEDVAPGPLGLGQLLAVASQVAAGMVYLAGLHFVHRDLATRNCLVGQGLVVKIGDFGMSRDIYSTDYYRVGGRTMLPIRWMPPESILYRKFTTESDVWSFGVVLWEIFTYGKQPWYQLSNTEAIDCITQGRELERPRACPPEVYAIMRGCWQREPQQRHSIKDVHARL

ALK = ALK (Homo sapiens, UniProt Q9UM73); test: ALK kinase assay (Kinase-Glo / AlphaScreen, purified NPM-ALK); assay type: biochemical; set-up: fused to the complete intracytoplasmic portion of ALK containing the functional tyrosine kinase domain; 6xHis; made in house; host or cells: insect cells; the other entry of the earlier key: NPM1 (P06748, Nucleophosmin)
Chain of ALK (Q9UM73 with tags, fused parts or gaps): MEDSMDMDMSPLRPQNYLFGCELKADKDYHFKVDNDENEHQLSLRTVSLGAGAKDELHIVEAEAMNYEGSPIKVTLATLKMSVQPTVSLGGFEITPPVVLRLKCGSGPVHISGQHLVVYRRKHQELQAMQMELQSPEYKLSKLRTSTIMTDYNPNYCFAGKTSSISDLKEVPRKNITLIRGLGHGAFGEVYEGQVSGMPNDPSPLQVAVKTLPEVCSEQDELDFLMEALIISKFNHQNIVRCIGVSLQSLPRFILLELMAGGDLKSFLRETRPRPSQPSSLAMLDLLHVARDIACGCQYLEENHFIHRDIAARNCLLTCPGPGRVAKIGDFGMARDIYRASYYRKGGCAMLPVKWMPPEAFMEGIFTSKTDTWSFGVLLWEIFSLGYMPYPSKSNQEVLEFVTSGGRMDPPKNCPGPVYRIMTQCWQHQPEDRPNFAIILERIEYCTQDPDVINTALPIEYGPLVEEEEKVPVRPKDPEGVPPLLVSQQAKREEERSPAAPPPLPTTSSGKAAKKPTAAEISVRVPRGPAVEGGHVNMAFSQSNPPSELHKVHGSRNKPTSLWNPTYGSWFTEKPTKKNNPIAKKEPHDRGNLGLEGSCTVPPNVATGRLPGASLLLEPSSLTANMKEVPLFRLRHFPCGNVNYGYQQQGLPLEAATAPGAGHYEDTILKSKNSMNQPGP

IGF1R = biological target: T2, IGF1R (Homo sapiens, UniProt P08069); test: IGF1R kinase assay; assay type: biochemical
T2 construct: 6×His- or GST-tagged kinase domain fragments of the corresponding RTKs expressed in baculovirus system; host or cells: baculovirus system
T2 sequence (P08069 999-1274 limits assumed): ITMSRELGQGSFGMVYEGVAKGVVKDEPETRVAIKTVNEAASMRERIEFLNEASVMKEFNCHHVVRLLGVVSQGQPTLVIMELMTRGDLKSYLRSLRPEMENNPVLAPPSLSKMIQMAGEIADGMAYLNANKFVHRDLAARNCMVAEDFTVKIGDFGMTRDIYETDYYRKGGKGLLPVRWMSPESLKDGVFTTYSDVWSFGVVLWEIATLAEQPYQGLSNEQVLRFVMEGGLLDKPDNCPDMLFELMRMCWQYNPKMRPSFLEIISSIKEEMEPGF
Summary of the method: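 The AlphaScreen PT66 format of the NPM-ALK assay was applied with minor modifications to commercial recombinant His/GST-tagged kinase domains. Compound (0.078125–40 μM) was incubated 30 min at RT with 10 μM ATP and biotinylated poly-GT in Tris pH 7.5/MgCl2/MnCl2/DTT buffer, then beads 60 min. Read at 520–680 nm; IC50 and Ki derived.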

[1] = Plasma Protein Binding (Human), equilibrium dialysis; assay type: in vitro ADME; conditions: 1.0E−05 M; for % Protein Bound, Mean: equilibrium dialysis; for % Protein Bound, 1st/2nd: individual data
UConn = test: Cell proliferation inhibition, ALCL line UConn; assay type: cell-based; conditions: Table 2, cell line; read-out: IC50 ALCL (ALK) Uconn
From the text: (§1) Cell proliferation inhibition assays were run for compound (II) with the five target NPM-ALK-dependent ALCL cell lines (Karpas 299, SuDHL-1, JB6, SupM2, UConn) and 12 unrelated cell lines (HEK293, CHO-K1, MCF7, HepG2, H292, H520, H1581, H596, H522, CHA-GO-K1, UMC-11, SK-MES1). […] The pronounced target cell-killing effect is also observed (molecular mechanisms to be determined).

WI38 = test: Cell line IC50, control WI38; assay type: cell-based; conditions: Homo sapiens, WI-38; Table 2, cell line
H929 = test: Cell line IC50, MM (IGF1R) H929; assay type: cell-based; conditions: Homo sapiens, NCI-H929; Table 2, cell line
JB6 = test: Cell proliferation inhibition, ALCL line JB6; assay type: cell-based; conditions: Table 2, cell line, read-out: IC50 ALCL (ALK) JB6
From the text: as §1

Karpas299 = test: Cell proliferation inhibition, ALCL line Karpas299; assay type: cell-based; conditions: Homo sapiens, KARPAS-299; Table 2, cell line; read-out: IC50 ALCL (ALK) Karpas299
From the text: The IL-3-dependent lymphoid cell line BaF3 or BaF3 rendered IL-3-independent by engineered expression of NPM-ALK were used in parallel to test each candidate inhibitor. Control wells contained DMSO solvent without test compound. Specific inhibition of ALK signaling is indicated in the assay by impairment of NPM-ALK-expressing BaF3 cell growth without alterations in the growth of parental BaF3. This colorimetric assay of cell proliferation and viability is based upon reduction of the yellow monotetrazolium salt XTT to a water-soluble orange formazan dye, a reaction catalyzed by mitochondrial dehydrogenases in living cells only (Cell Proliferation Kit II, Cat. #1 465 015, Roche Biochemicals). In addition to testing compounds for their ability to impair the growth of BaF3 cells engineered to express NPM-ALK, the NPM-ALK-positive human lymphoma cell line Karpas-299 (Deutsche Sammlung von Mikroorganismen and Zellkulturen GmbH (DSMZ) no. ACC 31), the human BCR-ABL-positive chronic myeloid leukemia cell line K562 (American Type Culture Collection (ATCC) no. CCL-243), and the human T-cell leukemia line Jurkat (DSMZ no. ACC 282) were tested in these assays.
Each compound stock in 100% DMSO was first diluted using 8% DMSO/culture medium to produce a working stock of 250 μM compound. This working stock was then used to perform serial 1:1 dilutions (i.e., 125 μM, 62.5 μM, 31.25 μM, 15.625 μM, 7.8125 μM, and 3.90625 μM) using DMSO-free culture medium. Twenty (20) μL of each of these dilutions was then added to the cells (2×10^4 cells in 80 μL culture medium per 96-well) to obtain the final test compound concentrations (i.e., 25 μM, 12.5 μM, 6.25 μM, 3.125 μM, 1.5625 μM, and 0.78125 μM).
as §1

[2] = Table 2, read-out: Enzymatic ALK IC50
[3] = Table 2, read-out: Enzymatic IGF1R IC50

IC50 (IRK) [µM] | IC50 (TRKA) [µM] | IC50 (ALK; Table 1, read-out: ALK IC50) [µM] | IC50 (IGF1R; Table 1, read-out: IGF1R IC50) [µM] | % Protein Bound, Mean [1] [%] | % Protein Bound, 1st/2nd [1] | IC50 (ALK; [2]) [µM] | IC50 (IGF1R; [3]) [µM] | IC50 (H929) [µM] | IC50 (Karpas299) [µM] | Compound | IC50 (UConn) [µM] | IC50 (WI38) [µM] | IC50 (JB6) [µM]
> 1 | < 0.01 | 0.01 to 0.1 | > 1 |  |  |  |  |  |  | Cc1cccc(C)c1C[C@H](C)Nc1cc[nH]c(=O)c1-c1nc2cc3c(cc2[nH]1)C(=O)N(CCN1CCCC1)C3 |  |  | 
0.1 to 0.25 | < 0.01 | 0.01 to 0.1 | 0.25 to 1 |  |  |  |  |  |  | Cc1c(F)cccc1C[C@H](C)Nc1cc[nH]c(=O)c1-c1nc2cc3c(cc2[nH]1)C(=O)N(CCN1CCCC1)C3 |  |  | 
> 1 | 0.1 to 0.25 | > 1 | 0.25 to 1 |  |  |  |  |  |  | O=C1NC(=O)c2cc3[nH]c(-c4c(NC[C@@H](O)c5cccc(Cl)c5)cc[nH]c4=O)nc3cc21 |  |  | 
0.1 to 0.25 | 0.01 to 0.1 | 0.01 to 0.1 | 0.01 to 0.1 |  |  |  |  |  |  | O=C1c2cc3nc(-c4c(NC[C@@H](O)c5cccc(Cl)c5)cc[nH]c4=O)[nH]c3cc2C(=O)N1CCN1CCCC1 |  |  | 
 |  |  |  | 19.2 | 21.4% and 16.9% |  |  |  |  | CCCC(=O)Nc1ccc(OCC(O)CNC(C)C)c(C(C)=O)c1 (centres unmarked) [Acebutolol] |  |  | 
 |  |  |  | 99.2 | 99.2% |  |  |  |  | CC(=O)CC(c1ccccc1)c1c(O)c2ccccc2oc1=O (centres unmarked) [Warfarin] |  |  | 
0.1 to 0.25 | < 0.01 | < 0.01 | 0.1 to 0.25 |  |  |  |  |  |  | Cc1ccc(F)cc1C[C@H](C)Nc1cc[nH]c(=O)c1-c1nc2cc3c(cc2[nH]1)CN(CCN(C)C)C3=O [drawing 316] |  |  | 
 |  |  |  |  |  | < 0.01 | 0.1 to 0.25 | 0.25 to 1 | < 0.01 | Cc1ccc(F)cc1C[C@H](C)Nc1cc[nH]c(=O)c1-c1nc2c(C)c3c(cc2[nH]1)CN(CCN1CCCC1)C3=O [drawing 351] | 0.01 to 0.1 | > 1 | < 0.01
 |  |  |  |  |  | < 0.01 | > 1 | 0.25 to 1 | < 0.01 | C[C@@H](Cc1c(F)c(F)cc(F)c1F)Nc1cc[nH]c(=O)c1-c1nc2cc3c(cc2[nH]1)CN(CCN1CCCC1)C3=O [drawing 352] | 0.01 to 0.1 | > 1 | < 0.01
 |  |  |  |  |  | < 0.01 | > 1 | 0.25 to 1 | < 0.01 | C[C@@H]1CCCN1CCN1Cc2cc3[nH]c(-c4c(N[C@@H](C)Cc5cc(F)cc(F)c5F)cc[nH]c4=O)nc3cc2C1=O [drawing 353] | 0.01 to 0.1 | > 1 | < 0.01
 |  |  |  |  |  | 0.01 to 0.1 | > 1 | 0.25 to 1 | 0.01 to 0.1 | Cc1ccc(F)cc1C[C@H](C)Nc1cc[nH]c(=O)c1-c1nc2cc3c(cc2[nH]1)CN(CCN1CCC[C@H]1C)C3=O [drawing 354] | 0.01 to 0.1 | > 1 | 0.01 to 0.1
 |  |  |  |  |  | < 0.01 | 0.01 to 0.1 | 0.25 to 1 | 0.01 to 0.1 | CNCCN1Cc2cc3[nH]c(-c4c(N[C@@H](C)Cc5cc(F)ccc5C)cc[nH]c4=O)nc3cc2C1=O [drawing 355] | 0.01 to 0.1 | > 1 | < 0.01
 |  |  |  |  |  | < 0.01 | 0.1 to 0.25 | 0.25 to 1 | 0.01 to 0.1 | C[C@@H](Cc1cc(F)cc(F)c1F)Nc1cc[nH]c(=O)c1-c1nc2cc3c(cc2[nH]1)CN(CCN(C)C)C3=O [drawing 356] | 0.01 to 0.1 | > 1 | 0.01 to 0.1
 |  |  |  |  |  | < 0.01 | 0.1 to 0.25 | 0.25 to 1 | 0.01 to 0.1 | Cc1ccc(F)cc1C[C@H](C)Nc1cc[nH]c(=O)c1-c1nc2cc3c(cc2[nH]1)CN(CCN(C)C)C3=O [drawing 357] | 0.01 to 0.1 | > 1 | 0.01 to 0.1
 |  |  |  |  |  | 0.01 to 0.1 | 0.25 to 1 | 0.25 to 1 | 0.01 to 0.1 | C[C@@H](Cc1cc(F)cc(F)c1F)Nc1cc[nH]c(=O)c1-c1nc2cc3c(cc2[nH]1)CN(CCN1CCCC1)C3=O [drawing 358] | 0.01 to 0.1 | > 1 | 0.01 to 0.1
 |  |  |  |  |  | 0.01 to 0.1 | 0.25 to 1 | 0.25 to 1 | 0.01 to 0.1 | C[C@@H](Cc1cc(F)ccc1Br)Nc1cc[nH]c(=O)c1-c1nc2cc3c(cc2[nH]1)CN(CCN1CCCC1)C3=O [drawing 359] | 0.1 to 0.25 | > 1 | 0.01 to 0.1

Compound | IC50 (IRK) [µM] | IC50 (TRKA) [µM] | IC50 (ALK; Table 1, read-out: ALK IC50) [µM] | IC50 (IGF1R; Table 1, read-out: IGF1R IC50) [µM] | % Protein Bound, Mean [1] [%] | % Protein Bound, 1st/2nd [1] | IC50 (ALK; [2]) [µM] | IC50 (IGF1R; [3]) [µM] | IC50 (H929) [µM] | IC50 (Karpas299) [µM] | IC50 (UConn) [µM] | IC50 (WI38) [µM] | IC50 (JB6) [µM]
Cc1ccc(F)cc1C[C@H](C)Nc1cc[nH]c(=O)c1-c1nc2cc3c(cc2[nH]1)C(=O)N(CCN1CCCC1)C3 [drawing 303] | 0.1 to 0.25 | < 0.01 | < 0.01 | 0.1 to 0.25 |  |  |  |  |  |  |  |  | 
Cc1ccc(F)cc1C[C@H](C)Nc1cc[nH]c(=O)c1-c1nc2cc3c(cc2[nH]1)C(=O)N(CCN1CCCC1)C3 [drawing 350] |  |  |  |  |  |  | < 0.01 | 0.1 to 0.25 | 0.25 to 1 | < 0.01 | 0.01 to 0.1 | > 1 | < 0.01
